Data from patent publication US20230167114A1, “MACROCYCLIC JAK INHIBITOR AND USE THEREOF” (Biopolar Hongye (Guangdong) Pharmaceutical Co., Ltd., priority 2020, published 2023).

Experiments:
Assay type in all cases: biochemical
[1] = target: T1, JAK3 (Homo sapiens, UniProt P52333); experiment: JAK kinase activity, homogeneous time-resolved fluorescence (JAK3 reaction system); details: ATP 2 μM, JAK3 protein 0.04 ng/μL; read-out: JAK 3 activity
T1 sequence (P52333 1-1124): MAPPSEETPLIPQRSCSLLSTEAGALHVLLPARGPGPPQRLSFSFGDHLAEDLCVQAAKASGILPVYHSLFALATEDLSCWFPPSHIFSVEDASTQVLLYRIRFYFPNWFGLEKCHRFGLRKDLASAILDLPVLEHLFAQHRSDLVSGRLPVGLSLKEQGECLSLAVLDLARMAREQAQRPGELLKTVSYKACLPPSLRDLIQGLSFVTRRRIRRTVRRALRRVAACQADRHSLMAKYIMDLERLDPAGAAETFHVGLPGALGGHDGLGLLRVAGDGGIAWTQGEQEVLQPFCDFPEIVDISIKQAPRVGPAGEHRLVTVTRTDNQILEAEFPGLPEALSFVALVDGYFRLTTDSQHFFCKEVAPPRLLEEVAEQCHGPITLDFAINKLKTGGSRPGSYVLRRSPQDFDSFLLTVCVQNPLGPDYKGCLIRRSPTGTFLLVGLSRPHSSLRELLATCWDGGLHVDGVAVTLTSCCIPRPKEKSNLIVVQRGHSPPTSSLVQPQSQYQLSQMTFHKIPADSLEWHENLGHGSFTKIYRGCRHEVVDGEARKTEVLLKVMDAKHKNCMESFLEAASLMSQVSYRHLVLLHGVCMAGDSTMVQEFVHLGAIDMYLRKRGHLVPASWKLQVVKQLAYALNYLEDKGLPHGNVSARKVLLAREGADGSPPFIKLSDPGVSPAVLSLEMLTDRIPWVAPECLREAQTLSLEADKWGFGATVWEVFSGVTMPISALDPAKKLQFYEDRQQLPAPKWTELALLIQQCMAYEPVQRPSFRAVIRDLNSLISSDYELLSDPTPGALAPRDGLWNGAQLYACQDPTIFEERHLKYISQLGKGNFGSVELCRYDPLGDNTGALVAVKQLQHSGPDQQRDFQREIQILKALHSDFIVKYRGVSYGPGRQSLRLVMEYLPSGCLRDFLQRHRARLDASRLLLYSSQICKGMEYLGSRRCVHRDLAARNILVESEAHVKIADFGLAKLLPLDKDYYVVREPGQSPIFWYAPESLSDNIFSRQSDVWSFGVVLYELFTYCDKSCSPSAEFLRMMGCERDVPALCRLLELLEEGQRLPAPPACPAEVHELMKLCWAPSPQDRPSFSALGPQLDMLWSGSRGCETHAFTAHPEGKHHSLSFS
Protocol: (§1) The activity measurement method of JAK kinase was to use homogeneous time-resolved fluorescence technique. The reaction was performed in 384 shallow well plates with a total reaction volume of 10 μL. The mixture of kinase protein, compound, ATP and substrate was carried out in a reaction buffer of 50 mM Hepes (pH7.0), NaN3 0.02%, BSA 0.01%, 0.1 mM orthocanadate, 5 mM MgCl2, and 1 mM DTT. After reacting for 1 hour, antibody capable of recognizing substrate phosphorylation and dye XL-615 and detection buffer (Cisbio) containing EDTA were added to the system. The reaction signal of kinase was detected by PE company's porous plate detector. The parameter settings were excitation light at 320 nm, emission light at 615 nm and 665 nm. The activity of JAK is indirectly reflected by the signal ratio of 665 nm and 615 nm. In the reaction, the background well without enzyme and the total enzyme activity well without compound were set.
(§2) The IC50 value of the compound inhibiting protein was obtained by the formula: Y=100/(1+10^((Log IC50−X)*HillSlope)).
In JAK3 reaction system, the concentration of ATP was 2 μM, and the concentration of JAK3 protein was 0.04 ng/μL.

[2] = target: TYK2 (Homo sapiens, UniProt P29597); experiment: JAK kinase activity, homogeneous time-resolved fluorescence (TYK2 reaction system); details: ATP 2 μM, TYK2 protein 0.2 ng/μL; read-out: TYK 2 activity
Sequence of TYK2 (P29597 whole entry): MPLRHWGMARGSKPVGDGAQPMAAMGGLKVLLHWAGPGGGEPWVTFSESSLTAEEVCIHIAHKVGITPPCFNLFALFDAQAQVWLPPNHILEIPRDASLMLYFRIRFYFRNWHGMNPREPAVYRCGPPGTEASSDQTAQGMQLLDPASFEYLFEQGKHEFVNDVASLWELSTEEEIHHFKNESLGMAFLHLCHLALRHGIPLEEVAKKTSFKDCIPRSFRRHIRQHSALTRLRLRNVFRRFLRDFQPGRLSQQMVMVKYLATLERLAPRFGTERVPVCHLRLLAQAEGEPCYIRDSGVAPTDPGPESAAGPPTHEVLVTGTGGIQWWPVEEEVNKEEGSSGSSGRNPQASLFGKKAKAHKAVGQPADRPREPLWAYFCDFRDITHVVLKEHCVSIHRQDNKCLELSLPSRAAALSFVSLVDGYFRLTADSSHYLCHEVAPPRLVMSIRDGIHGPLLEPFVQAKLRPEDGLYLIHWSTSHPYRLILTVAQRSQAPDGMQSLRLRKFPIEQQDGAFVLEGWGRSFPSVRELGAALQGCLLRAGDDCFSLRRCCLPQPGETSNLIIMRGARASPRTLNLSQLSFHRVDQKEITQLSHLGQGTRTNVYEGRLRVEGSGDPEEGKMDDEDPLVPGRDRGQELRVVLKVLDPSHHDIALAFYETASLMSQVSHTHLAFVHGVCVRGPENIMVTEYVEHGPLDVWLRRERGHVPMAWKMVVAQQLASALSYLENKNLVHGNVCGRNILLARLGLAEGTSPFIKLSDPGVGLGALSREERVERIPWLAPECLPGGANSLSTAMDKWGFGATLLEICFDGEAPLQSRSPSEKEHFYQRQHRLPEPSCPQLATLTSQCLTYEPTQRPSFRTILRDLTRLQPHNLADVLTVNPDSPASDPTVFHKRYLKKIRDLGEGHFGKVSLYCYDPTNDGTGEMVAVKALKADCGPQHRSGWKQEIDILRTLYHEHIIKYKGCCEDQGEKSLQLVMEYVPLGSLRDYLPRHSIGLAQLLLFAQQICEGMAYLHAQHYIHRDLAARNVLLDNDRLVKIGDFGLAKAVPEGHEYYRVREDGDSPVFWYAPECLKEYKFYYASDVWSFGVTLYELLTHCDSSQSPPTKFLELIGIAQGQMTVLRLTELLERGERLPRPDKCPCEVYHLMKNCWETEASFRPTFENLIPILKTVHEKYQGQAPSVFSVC
Protocol: as §1, §2
In TYK2 reaction system, the concentration of ATP was 2 μM and the concentration of TYK2 protein was 0.2 ng/μL.

[3] = target: JAK2 (Homo sapiens, UniProt O60674); experiment: JAK kinase activity, homogeneous time-resolved fluorescence (JAK2 reaction system); details: ATP 2 μM, JAK2 protein 0.01 ng/μL
Sequence of JAK2 (O60674 whole entry): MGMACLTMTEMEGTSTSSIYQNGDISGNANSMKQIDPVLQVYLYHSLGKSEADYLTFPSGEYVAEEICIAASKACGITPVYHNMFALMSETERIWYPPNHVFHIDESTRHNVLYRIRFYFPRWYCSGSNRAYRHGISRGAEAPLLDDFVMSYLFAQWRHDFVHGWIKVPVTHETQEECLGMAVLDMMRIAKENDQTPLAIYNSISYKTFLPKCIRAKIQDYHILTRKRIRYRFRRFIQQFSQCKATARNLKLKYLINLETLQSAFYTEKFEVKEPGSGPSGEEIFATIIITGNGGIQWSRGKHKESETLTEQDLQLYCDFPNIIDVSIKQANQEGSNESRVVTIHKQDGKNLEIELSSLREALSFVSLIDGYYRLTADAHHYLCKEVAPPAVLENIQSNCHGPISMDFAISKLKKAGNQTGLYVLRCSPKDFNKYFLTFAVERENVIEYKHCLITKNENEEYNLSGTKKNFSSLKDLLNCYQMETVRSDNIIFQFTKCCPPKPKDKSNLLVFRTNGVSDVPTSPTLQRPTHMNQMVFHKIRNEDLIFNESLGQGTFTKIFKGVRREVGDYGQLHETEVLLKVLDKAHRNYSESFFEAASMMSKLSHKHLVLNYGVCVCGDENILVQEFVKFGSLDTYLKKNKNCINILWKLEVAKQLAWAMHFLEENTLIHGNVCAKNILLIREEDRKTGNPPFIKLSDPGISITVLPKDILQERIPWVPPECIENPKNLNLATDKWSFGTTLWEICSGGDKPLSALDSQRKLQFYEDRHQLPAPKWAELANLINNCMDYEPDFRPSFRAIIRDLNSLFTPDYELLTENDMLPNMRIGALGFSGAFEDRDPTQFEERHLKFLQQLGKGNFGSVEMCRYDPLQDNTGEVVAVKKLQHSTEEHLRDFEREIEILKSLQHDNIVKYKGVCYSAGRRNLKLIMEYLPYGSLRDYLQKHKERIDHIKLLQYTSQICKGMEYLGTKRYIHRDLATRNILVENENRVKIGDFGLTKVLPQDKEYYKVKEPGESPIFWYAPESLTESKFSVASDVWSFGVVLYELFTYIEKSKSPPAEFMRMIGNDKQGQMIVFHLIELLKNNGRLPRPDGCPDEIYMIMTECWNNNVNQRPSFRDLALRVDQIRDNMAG
Protocol: as §1, §2
In JAK2 reaction system, the concentration of ATP was 2 μM, and the concentration of JAK2 protein was 0.01 ng/μL.

[4] = target: JAK1 (Homo sapiens, UniProt P23458); experiment: JAK kinase activity, homogeneous time-resolved fluorescence (JAK1 reaction system); details: ATP 2 μM, JAK1 protein 0.2 ng/μL; read-out: JAK 1 activity
Sequence of JAK1 (P23458 whole entry): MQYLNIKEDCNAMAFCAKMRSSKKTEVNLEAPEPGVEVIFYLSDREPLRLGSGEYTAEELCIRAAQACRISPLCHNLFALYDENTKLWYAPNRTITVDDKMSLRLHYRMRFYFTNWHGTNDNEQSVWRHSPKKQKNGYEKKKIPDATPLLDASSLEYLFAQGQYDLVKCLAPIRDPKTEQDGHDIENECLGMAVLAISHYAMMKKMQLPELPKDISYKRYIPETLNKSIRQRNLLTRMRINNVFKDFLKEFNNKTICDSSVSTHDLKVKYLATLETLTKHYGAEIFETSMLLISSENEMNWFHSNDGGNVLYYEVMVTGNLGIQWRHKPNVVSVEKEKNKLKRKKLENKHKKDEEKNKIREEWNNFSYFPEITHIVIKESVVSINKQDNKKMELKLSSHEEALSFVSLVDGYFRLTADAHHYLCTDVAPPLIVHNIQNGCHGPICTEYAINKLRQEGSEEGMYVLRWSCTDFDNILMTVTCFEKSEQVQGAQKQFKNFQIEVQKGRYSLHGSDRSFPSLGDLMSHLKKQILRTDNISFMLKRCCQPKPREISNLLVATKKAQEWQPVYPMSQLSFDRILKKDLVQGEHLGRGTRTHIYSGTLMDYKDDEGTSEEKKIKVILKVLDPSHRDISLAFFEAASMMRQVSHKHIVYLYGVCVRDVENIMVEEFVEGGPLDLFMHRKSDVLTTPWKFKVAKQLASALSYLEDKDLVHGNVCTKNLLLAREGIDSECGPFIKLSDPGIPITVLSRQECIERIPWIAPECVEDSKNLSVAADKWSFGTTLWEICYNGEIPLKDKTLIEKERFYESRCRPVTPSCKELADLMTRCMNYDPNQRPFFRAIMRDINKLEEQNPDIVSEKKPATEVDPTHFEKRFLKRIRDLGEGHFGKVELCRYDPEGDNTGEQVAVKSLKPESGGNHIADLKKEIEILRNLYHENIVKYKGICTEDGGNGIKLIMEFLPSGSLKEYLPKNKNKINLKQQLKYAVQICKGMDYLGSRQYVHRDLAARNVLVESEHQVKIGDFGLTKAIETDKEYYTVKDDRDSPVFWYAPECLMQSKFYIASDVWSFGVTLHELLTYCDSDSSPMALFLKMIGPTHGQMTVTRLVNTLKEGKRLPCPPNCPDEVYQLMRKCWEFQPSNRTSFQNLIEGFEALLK
Protocol: as §1, §2
In JAK1 reaction system, the concentration of ATP was 2 μM, and the concentration of JAK1 protein was 0.2 ng/μL.

With `O=C1NCCCCCNc2nc(ncc2F)Nc2cc(cnc2F)-c2ccc1cc2` [Compound 4, 2^6,4^5-difluoro-3,5,11-triaza-4(2,4)-pyrimidina-2(3,5)-pyridina-1(1,4)-benzenacyclododecaphan-12-one] the IC50 [1] was 1 to 10 µM, the IC50 [2] was > 10 µM and the IC50 [3] was 0.101 to 1 µM. For the same compound, the IC50 [4] was 1 to 10 µM.

With `CC(=O)Nc1cc2ccc1C(=O)NCCCCCNc1nc(ncc1C)Nc1cc-2cnc1F` [Compound 43, N-(2^6-fluoro-4^5-methyl-12-oxo-3,5,11-triaza-4(2,4)-pyrimidina-2(3,5)-pyridina-1(l,4)-benzenacyclododecaphane-1^3-yl) acetamide] the IC50 [1] was 0.101 to 1 µM, the IC50 [2] was > 10 µM and the IC50 [3] was 0.101 to 1 µM. For the same compound, the IC50 [4] was 0.101 to 1 µM.

`Cc1cnc2nc1Nc1cccc(c1)CCCNC(=O)c1ccc(cc1)-c1cnc(F)c(c1)N2` [Compound 17, 2^6-fluoro-4^5-methyl-3,5,10-triaza-4(2,4)-pyrimidina-2(3,5)-pyridina-1(1,4),6(1,3)-dibenzenacycloundecaphan-11-one] was tested, and the IC50 [1] was 0.011 to 0.1 µM, the IC50 [2] was 0.011 to 0.1 µM and the IC50 [3] was < 0.01 µM. The IC50 [4] was < 0.01 µM.

`Cc1cnc2nc1NCCCCCNC(=O)c1ccc(cc1N)-c1cnc(F)c(c1)N2` [Compound 9, 1^3-amino-2^6-difluoro-4^5-methyl-3,5,11-triaza-4(2,4)-pyrimidina-2(3,5)-pyridina-1(1,4)-benzenacyclododecaphan-12-one] showed an IC50 [1] of 1 to 10 µM, an IC50 [2] of 1 to 10 µM and an IC50 [3] of 0.101 to 1 µM. The IC50 [4] was 0.101 to 1 µM.

With `COc1cc2ccc1C(=O)NCCCCCNc1nc(ncc1C)Nc1cc-2cnc1F` [Compound 8, 2^6-fluoro-1^3-methoxy-4^5-methyl-3,5,11-triaza-4(2,4)-pyrimidina-2(3,5)-pyridina-1(1,4)-benzenacyclododecaphan-12-one] the IC50 [1] was 1 to 10 µM, the IC50 [2] was > 10 µM and the IC50 [3] was 1 to 10 µM. For the same compound, the IC50 [4] was 0.101 to 1 µM.

`Cc1cnc2nc1Nc1cc(F)cc(c1)CCNC(=O)c1ccc(cc1S(C)(=O)=O)-c1cnc(F)c(c1)N2` [Compound 46, 2^6,6^5-difluoro-4^5-methyl-1^3(methylsulfonyl)-3,5,9-triaza-4(2,4)-pyrimidina-2(3,5)-pyridina-1(1,4),6(1,3)-dibenzenacyclodecaphan-10-one] was tested, and the IC50 [1] was 0.011 to 0.1 µM, the IC50 [2] was 0.101 to 1 µM and the IC50 [3] was < 0.01 µM. For the same compound, the IC50 [4] was < 0.01 µM.

In the case of `CCNc1cc2ccc1C(=O)NCCCCCNc1nc(ncc1C)Nc1cc-2cnc1F` [Compound 44, 1^3-(ethylamino)-2^6-difluoro-4^5-methyl-3,5,11-triaza-4(2,4)-pyrimidina-2(3,5)-pyridina-1(1,4)-benzenacyclododecaphan-12-one], the IC50 [1] is reported as > 10 µM, the IC50 [2] is reported as > 10 µM and the IC50 [3] is reported as 1 to 10 µM. It also gave an IC50 [4] of 1 to 10 µM.

`Cc1cnc2nc1NCCCCCNC(=O)c1ccc(c(S(C)(=O)=O)c1)-c1cnc(F)c(c1)N2` [Compound 26, 2^6-fluoro-4^5-methyl-1^2-(methylsulfonyl)-3,5,11-triaza-4(2,4)-pyrimidina-2(3,5)-pyridina-1(1,4)-benzenacyclododecaphan-12-one] was tested, and the IC50 [1] was 1 to 10 µM, the IC50 [2] was > 10 µM and the IC50 [3] was 1 to 10 µM. For the same compound, the IC50 [4] was 1 to 10 µM.

`Cc1cnc2nc1Nc1cccc(c1)CCCNC(=O)c1c(F)cc(cc1F)-c1cnc(F)c(c1)N2` [Compound 31, 1^3,1^5,2^6-trifluoro-4^5-methyl-3,5,10-triaza-4(2,4)-pyrimidina-2(3,5)-pyridina-1(1,4),6(1,3)-dibenzenacycloundecaphan-11-one] was tested, and the IC50 [1] was 1 to 10 µM, the IC50 [2] was > 10 µM and the IC50 [3] was 0.101 to 1 µM. The IC50 [4] was 0.101 to 1 µM.

`Cc1cnc2nc1Nc1cccc(c1)CCCNC(=O)c1ccc(cc1F)-c1cnc(F)c(c1)N2` [Compound 23, 1^3,2^6-difluoro-4^5-methyl-3,5,10-triaza-4(2,4)-pyrimidina-2(3,5)-pyridina-1(1,4),6(1,3)-dibenzenacycloundecaphan-11-one] was tested, and the IC50 [1] was 0.101 to 1 µM, the IC50 [2] was 0.101 to 1 µM and the IC50 [3] was < 0.01 µM. For the same compound, the IC50 [4] was < 0.01 µM.

With `Cc1cnc2nc1Nc1cccc(c1)CCCCNC(=O)c1ccc(cc1)-c1cnc(F)c(c1)N2` [Compound 18, 2^6-fluoro-4^5-methyl-3,5,11-triaza-4(2,4)-pyrimidina-2(3,5)-pyridina-1(1,4),6(1,3)-dibenzenacyclododecaphan-12-one] the IC50 [1] was < 0.01 µM, the IC50 [2] was 0.011 to 0.1 µM and the IC50 [3] was < 0.01 µM. For the same compound, the IC50 [4] was < 0.01 µM.

`COc1cc2cc(c1)Nc1nc(ncc1C)Nc1cc(cnc1F)-c1ccc(cc1)C(=O)NCC2` [Compound 47, 2^6-fluoro-6^5-methoxy-4^5-methyl-3,5,9-triaza-4(2,4)-pyrimidina-2(3,5)-pyridina-1(1,4),6(1,3)-dibenzenacyclodecaphan-10-one] was tested, and the IC50 [1] was 1 to 10 µM, the IC50 [2] was > 10 µM and the IC50 [3] was 0.101 to 1 µM. The IC50 [4] was 0.101 to 1 µM.

With `Cc1cnc2nc1NCCCCCNC(=O)c1ccc(c(F)c1F)-c1cnc(F)c(c1)N2` [Compound 34, 1^2,l^3,2^6-trifluoro-4^5-methyl-3,5,11-triaza-4(2,4)-pyrimidina-2(3,5)-pyridina-1(1,4)-benzenacydododecaphan-12-one] the IC50 [1] was 0.101 to 1 µM, the IC50 [2] was > 10 µM and the IC50 [3] was 0.101 to 1 µM. The IC50 [4] was 0.101 to 1 µM.

For `Cc1cnc2nc1Nc1ccc(F)c(c1)CCNC(=O)c1ccc(cc1S(C)(=O)=O)-c1cnc(F)c(c1)N2` [Compound 27, 2^6,6^4-difluoro-4^5-methyl-1^3(methylsulfonyl)-3,5,9-triaza-4(2,4)-pyrimidina-2(3,5)-pyridina-1(1,4),6(1,3)-dibenzenacyclodecaphan-10-one], the IC50 [1] was 0.101 to 1 µM, the IC50 [2] was > 10 µM and the IC50 [3] was 0.101 to 1 µM. It also gave an IC50 [4] of 0.011 to 0.1 µM.

With `Cc1cnc2nc1Nc1cccc(c1)CCCC(=O)N1CCN(CC1)c1cnc(F)c(c1)N2` [Compound 35, 2^6-fluoro-4^5-methyl-3,5-diaza-4(2,4)-pyrimidina-1(1,4)-piperazina-2(3,5)-pyridina-6(1,3)-benzenacyclodecaphan-10-one] the IC50 [1] was 0.101 to 1 µM, the IC50 [2] was 0.101 to 1 µM and the IC50 [3] was 0.011 to 0.1 µM. The IC50 [4] was < 0.01 µM.

`Cc1cnc2nc1Nc1cccc(c1)CCNC(=O)c1c(F)cc(cc1F)-c1cnc(F)c(c1)N2` [Compound 33, 1^3,1^5,2^6-trifluoro-4^5-methyl-3,5,9-triaza-4(2,4)-pyrimidina-2(3,5)-pyridina-1(1,4),6(1,3)-dibenzenacyclodecaphan-10-one] was tested, and the IC50 [1] was 1 to 10 µM, the IC50 [2] was > 10 µM and the IC50 [3] was 0.101 to 1 µM. For the same compound, the IC50 [4] was 0.101 to 1 µM.

Work on `Cc1cnc2nc1NCCCCNC(=O)c1ccc(cc1F)-c1cnc(F)c(c1)N2` [Compound 7, 1^2,2^6-difluoro-4^5-methyl-3,5,10-triaza-4(2,4)-pyrimidina-2(3,5)-pyridina-1(1,4)-benzenacycloundecaphan-11-one] yielded an IC50 [1] of 1 to 10 µM, an IC50 [2] of 1 to 10 µM and an IC50 [3] of 0.101 to 1 µM. The IC50 [4] was 0.011 to 0.1 µM.

`Cc1cnc2nc1Nc1cccc(c1)CCNC(=O)c1ccc(cc1F)-c1cnc(F)c(c1)N2` [Compound 28, 1^3,2^6-difluoro-4^5-methyl-3,5,9-triaza-4(2,4)-pyrimidina-2(3,5)-pyridina-1(1,4),6(1,3)-dibenzenacyclodecaphan-10-one] was tested, and the IC50 [1] was 0.011 to 0.1 µM, the IC50 [2] was 1 to 10 µM and the IC50 [3] was 0.011 to 0.1 µM. For the same compound, the IC50 [4] was < 0.01 µM.
